Laboratory results taken from publication PMC8213057, “Targeting ALK2: An Open Science Approach to Developing Therapeutics for the Treatment of Diffuse Intrinsic Pontine Glioma” (Journal of Medicinal Chemistry, 2020).

Legend:
ALK1/ACVRL1 = target: T1, ALK1/ACVRL1 (Homo sapiens, UniProt P37023); test: 375-member kinase panel; type: biochemical; conditions: Run 1, Run 2; for % enzyme activity: 1 μM
T1 construct: purchased Reaction Biology Corporation

AXL = target: T2, AXL (Homo sapiens, UniProt P30530); conditions: 1 μM; Run 1, Run 2
T2 sequence (P30530 26-894): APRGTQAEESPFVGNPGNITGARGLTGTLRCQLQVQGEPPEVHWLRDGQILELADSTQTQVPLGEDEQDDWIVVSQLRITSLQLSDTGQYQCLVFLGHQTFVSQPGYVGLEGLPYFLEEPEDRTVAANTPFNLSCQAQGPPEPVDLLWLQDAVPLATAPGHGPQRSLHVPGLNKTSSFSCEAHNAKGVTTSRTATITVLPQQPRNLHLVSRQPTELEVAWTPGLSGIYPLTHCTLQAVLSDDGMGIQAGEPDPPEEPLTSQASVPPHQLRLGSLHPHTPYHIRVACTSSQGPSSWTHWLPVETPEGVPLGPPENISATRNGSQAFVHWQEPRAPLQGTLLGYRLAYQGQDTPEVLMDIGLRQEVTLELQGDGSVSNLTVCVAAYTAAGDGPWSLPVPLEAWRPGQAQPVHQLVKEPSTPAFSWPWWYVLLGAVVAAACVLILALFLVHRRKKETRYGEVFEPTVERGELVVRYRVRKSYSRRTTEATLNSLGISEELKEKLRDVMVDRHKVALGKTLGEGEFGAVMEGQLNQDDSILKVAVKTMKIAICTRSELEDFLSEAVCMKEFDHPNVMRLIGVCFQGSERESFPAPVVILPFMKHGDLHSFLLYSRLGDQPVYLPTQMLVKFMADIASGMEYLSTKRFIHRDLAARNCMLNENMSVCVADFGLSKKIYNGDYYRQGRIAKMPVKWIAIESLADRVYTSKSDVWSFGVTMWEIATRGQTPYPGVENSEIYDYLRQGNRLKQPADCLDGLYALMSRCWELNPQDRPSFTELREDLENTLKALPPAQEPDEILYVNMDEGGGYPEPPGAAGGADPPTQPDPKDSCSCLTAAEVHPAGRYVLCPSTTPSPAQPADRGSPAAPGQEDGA

EPHA5 = EPHA5 (Homo sapiens, UniProt P54756); conditions: 1 μM; Run 1, Run 2
Chain of EPHA5 (P54756 25-1037): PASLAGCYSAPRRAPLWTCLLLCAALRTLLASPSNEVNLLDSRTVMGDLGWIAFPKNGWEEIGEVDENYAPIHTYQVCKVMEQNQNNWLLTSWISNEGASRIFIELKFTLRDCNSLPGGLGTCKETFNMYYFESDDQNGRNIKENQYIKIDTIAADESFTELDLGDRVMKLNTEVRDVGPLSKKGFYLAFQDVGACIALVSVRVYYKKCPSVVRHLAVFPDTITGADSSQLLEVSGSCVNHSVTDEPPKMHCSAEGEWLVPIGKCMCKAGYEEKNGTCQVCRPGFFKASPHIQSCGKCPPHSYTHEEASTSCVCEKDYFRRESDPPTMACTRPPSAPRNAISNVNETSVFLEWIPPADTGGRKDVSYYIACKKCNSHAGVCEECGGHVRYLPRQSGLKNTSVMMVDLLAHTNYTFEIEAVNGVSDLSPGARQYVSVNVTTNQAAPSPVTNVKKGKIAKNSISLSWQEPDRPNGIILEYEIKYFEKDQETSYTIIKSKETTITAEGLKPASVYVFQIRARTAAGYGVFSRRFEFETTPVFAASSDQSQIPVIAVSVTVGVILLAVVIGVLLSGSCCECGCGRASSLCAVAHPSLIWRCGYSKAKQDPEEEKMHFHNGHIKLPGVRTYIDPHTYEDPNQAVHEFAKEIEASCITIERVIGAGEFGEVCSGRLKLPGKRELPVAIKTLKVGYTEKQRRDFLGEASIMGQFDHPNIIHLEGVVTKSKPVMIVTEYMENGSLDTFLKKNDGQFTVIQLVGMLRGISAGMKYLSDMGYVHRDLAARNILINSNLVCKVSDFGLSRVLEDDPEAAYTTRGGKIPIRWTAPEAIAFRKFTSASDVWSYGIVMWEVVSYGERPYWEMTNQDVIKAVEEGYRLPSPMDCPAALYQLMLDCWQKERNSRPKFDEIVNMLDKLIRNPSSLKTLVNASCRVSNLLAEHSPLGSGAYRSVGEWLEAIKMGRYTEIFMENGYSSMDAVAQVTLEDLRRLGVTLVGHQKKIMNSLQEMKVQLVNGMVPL

SRMS = SRMS (Homo sapiens, UniProt Q9H3Y6); conditions: 1 μM; Run 1, Run 2
Chain of SRMS (Q9H3Y6 whole entry): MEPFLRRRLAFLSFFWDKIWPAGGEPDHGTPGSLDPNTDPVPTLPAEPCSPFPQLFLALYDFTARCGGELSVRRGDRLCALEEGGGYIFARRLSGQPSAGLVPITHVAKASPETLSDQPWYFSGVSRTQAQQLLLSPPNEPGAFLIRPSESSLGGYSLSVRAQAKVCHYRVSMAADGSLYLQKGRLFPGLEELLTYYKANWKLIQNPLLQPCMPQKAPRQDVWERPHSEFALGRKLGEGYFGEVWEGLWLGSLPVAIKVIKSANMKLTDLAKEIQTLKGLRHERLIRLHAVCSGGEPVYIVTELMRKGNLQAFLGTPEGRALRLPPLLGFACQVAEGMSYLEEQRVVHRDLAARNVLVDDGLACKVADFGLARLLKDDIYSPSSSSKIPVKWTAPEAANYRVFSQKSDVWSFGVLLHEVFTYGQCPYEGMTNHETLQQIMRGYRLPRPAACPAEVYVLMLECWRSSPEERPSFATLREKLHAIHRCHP

TBK1 [1] = target: T3, TBK1 (Homo sapiens, UniProt Q9UHD2); conditions: 1 μM; Run 1, Run 2
T3 sequence (Q9UHD2 1-729): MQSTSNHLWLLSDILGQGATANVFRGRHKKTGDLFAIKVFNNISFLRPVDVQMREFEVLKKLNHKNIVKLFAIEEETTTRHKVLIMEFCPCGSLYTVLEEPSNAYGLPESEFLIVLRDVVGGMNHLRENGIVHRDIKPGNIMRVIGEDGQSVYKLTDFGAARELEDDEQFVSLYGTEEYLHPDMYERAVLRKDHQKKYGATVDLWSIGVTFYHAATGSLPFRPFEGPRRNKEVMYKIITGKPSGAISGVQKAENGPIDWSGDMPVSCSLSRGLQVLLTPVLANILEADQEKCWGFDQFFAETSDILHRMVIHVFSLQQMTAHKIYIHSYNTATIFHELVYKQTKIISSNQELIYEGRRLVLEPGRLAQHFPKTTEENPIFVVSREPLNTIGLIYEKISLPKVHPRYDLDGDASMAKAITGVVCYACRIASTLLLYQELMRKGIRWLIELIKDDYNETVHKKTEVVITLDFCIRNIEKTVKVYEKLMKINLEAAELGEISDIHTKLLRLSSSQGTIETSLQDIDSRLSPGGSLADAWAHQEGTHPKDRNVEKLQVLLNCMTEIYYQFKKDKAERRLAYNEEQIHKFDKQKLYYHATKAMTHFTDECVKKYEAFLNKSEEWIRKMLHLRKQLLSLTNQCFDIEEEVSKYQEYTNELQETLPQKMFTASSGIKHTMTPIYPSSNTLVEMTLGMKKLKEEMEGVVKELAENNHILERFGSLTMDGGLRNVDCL

CHK2 = CHK2 (Homo sapiens, UniProt O96017); test: biochemical; conditions: read-out: % enzyme activity, 1 μM; Run 1, Run 2
Chain of CHK2 (O96017 whole entry): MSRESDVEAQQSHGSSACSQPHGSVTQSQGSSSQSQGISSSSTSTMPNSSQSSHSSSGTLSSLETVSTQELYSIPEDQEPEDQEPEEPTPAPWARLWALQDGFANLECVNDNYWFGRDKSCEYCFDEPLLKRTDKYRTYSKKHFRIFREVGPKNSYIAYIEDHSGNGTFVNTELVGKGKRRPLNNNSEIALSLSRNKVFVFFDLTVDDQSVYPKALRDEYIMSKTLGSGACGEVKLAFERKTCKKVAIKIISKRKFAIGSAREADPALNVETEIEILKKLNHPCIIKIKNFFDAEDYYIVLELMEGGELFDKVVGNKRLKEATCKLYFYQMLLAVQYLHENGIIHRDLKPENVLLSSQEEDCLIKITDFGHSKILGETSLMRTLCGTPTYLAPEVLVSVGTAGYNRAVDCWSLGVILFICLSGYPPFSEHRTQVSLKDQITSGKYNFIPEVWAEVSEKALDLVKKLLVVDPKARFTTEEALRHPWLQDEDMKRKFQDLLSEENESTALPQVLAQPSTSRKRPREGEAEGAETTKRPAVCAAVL

EPHA7 = EPHA7 (Homo sapiens, UniProt Q15375); test: biochemical; conditions: read-out: % enzyme activity, 1 μM; Run 1, Run 2
Chain of EPHA7 (Q15375 28-998): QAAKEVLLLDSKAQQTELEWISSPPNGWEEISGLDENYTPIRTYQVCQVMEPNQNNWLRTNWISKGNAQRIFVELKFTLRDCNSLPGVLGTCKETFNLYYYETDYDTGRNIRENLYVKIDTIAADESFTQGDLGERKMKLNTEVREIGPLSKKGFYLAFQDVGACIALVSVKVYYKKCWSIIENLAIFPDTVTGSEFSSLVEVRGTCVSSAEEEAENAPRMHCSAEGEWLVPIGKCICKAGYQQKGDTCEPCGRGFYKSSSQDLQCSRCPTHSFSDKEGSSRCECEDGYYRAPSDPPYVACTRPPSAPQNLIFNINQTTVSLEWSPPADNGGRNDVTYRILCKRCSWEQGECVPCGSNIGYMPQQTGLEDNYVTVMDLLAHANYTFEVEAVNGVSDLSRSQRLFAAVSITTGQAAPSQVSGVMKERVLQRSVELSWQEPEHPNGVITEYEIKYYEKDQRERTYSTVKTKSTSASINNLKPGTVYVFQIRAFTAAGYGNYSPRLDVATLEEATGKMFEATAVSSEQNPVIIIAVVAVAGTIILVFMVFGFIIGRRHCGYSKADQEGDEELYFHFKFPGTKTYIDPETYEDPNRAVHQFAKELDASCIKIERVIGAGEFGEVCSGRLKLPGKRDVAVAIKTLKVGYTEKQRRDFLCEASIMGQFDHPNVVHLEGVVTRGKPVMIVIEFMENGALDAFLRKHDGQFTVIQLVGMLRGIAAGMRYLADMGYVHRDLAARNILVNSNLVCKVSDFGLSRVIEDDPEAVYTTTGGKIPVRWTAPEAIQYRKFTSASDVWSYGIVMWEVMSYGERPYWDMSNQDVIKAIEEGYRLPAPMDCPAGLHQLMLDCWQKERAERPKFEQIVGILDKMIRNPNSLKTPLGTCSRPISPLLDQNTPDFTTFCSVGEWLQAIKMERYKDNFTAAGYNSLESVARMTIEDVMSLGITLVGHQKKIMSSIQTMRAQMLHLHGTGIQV

FRK/PTK5 = FRK/PTK5 (Homo sapiens, UniProt P42685); test: biochemical; conditions: read-out: % enzyme activity, 1 μM; Run 1, Run 2
Chain of FRK/PTK5 (P42685 whole entry): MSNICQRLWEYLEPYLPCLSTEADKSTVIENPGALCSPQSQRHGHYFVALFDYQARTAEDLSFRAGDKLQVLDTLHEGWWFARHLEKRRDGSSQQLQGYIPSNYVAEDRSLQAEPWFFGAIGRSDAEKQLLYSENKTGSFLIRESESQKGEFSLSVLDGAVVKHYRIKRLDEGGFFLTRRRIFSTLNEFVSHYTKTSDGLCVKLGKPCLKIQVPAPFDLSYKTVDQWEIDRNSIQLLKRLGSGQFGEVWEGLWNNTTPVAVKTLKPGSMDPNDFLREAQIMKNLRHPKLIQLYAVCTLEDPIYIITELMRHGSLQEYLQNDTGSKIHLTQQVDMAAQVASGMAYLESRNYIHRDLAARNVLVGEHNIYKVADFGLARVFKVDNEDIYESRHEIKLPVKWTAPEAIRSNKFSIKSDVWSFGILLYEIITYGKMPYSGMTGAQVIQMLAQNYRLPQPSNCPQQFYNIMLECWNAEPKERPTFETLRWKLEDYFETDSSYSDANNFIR

MARK4 = target: T4, MARK4 (Homo sapiens, UniProt Q96L34); test: biochemical; conditions: read-out: % enzyme activity, 1 μM; Run 1, Run 2
T4 sequence (Q96L34 1-752): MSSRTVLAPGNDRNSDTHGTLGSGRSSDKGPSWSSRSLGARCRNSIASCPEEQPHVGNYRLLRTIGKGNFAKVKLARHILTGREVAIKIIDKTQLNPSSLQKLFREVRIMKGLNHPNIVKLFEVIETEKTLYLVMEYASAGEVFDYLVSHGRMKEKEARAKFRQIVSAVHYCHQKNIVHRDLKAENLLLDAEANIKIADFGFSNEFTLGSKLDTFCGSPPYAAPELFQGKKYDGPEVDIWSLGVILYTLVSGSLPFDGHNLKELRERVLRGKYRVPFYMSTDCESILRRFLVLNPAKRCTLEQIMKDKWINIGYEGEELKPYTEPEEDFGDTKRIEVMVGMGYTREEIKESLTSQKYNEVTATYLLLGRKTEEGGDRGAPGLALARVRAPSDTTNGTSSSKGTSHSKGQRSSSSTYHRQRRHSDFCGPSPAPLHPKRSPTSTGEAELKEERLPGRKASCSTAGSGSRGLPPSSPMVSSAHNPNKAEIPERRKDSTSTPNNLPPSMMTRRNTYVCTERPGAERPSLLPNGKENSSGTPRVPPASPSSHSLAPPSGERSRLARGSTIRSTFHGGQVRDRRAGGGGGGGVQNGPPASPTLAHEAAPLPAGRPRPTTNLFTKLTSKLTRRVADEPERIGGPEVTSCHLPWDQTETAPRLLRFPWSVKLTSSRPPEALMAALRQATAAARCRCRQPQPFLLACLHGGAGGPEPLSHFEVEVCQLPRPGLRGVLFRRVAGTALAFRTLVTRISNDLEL

TBK1 [2] = target: T3, TBK1; test: biochemical; conditions: read-out: % enzyme activity, 1 μM; Run 1, Run 2

T1 sequence (P37023 22-503): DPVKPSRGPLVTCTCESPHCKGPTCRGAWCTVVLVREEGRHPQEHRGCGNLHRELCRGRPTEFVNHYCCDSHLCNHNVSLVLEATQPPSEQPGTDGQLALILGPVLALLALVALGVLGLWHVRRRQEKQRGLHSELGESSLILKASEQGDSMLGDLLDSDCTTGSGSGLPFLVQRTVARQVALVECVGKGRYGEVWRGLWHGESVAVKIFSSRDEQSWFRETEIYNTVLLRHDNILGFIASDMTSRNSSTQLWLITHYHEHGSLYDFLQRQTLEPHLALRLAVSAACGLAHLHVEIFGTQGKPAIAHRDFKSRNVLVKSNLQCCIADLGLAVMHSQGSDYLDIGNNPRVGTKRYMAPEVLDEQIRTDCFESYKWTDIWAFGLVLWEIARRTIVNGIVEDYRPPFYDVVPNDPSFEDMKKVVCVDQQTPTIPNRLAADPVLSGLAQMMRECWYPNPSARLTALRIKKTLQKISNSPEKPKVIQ

Row | Compound | % enzyme activity (ALK1/ACVRL1) [%] | % enzyme activity (AXL) [%] | % enzyme activity (EPHA5) [%] | % enzyme activity (SRMS) [%] | % enzyme activity (TBK1 [1]) [%] | remaining activity at 1 µM (CHK2) [%] | remaining activity at 1 µM (EPHA7) [%] | remaining activity at 1 µM (FRK/PTK5) [%] | remaining activity at 1 µM (MARK4) [%] | remaining activity at 1 µM (TBK1 [2]) [%] | remaining activity at 1 µM (ALK1/ACVRL1; read-out: % enzyme activity, 1 μM) [%]
1 | COc1cc(-c2cncc(-c3ccc(N4CCN(C)CC4)cc3)c2C)cc(F)c1C(N)=O [Compound 26a, 2-Fluoro-6-methoxy-4-(4-methyl-5-(4-(4-methylpiperazin-1-yl)phenyl)pyridin-3-yl)benzamide] | 2.65 | 81.59 | 90.37 | 95.09 | 92.56 | 99.7 | 101 | 101 | 83.7 | 93.6 | –
2 | COc1cc(-c2cncc(-c3ccc(N4C[C@@H](C)N(C)[C@@H](C)C4)cc3)c2C)cc(F)c1C(N)=O [Compound 26c, 2-Fluoro-6-methoxy-4-(4-methyl-5-(4-((3R,5S)-3,4,5-trimethylpiperazin-1-yl)phenyl)pyridin-3-yl)benzamide] | 4.38 | 86.95 | 90.66 | 95.91 | 85.62 | 102 | 98.4 | 98.2 | 96.8 | 87.2 | 4.67
